According to patent US12410208B2, “(2-acetamidyl)thio-beta-D-galactopyranoside derivatives” (Idorsia Pharmaceuticals Ltd, priority 2020, dated 2025):
Read-outs that look alike come from different tables or passages of the source.

Tests used:
human Gal-1 (hGal-1) = human Gal-1 (hGal-1) (Homo sapiens, UniProt P09382); assay: Competitive binding assay: biotinylated hGal-1 binding to microplate-adsorbed asialofetuin (ASF), spectrophotometric; details: hGal-1 binding to asialofetuin; Table 15; R and S epimers of selected Examples also listed; read-out: IC50 (Galectin-1 inhibition)
In short: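 Biotinylated hGal-1 (300-1000 ng/mL) incubated with compound on asialofetuin-coated plates 3 hours at 4 °C, washed, then streptavidin-peroxidase (80 ng/mL) 1 hour at 4 °C. ABTS substrate read spectrophotometrically; IC50 reported as mean of several measurements.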

[1] = molecular target: biotinylated human Gal-3 (hGal-3) (Homo sapiens, UniProt P17931); assay: Competitive binding assay: biotinylated hGal-3 binding to microplate-adsorbed asialofetuin (ASF), spectrophotometric
In short: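 Competitive binding of biotinylated hGal-3 to plate-adsorbed asialofetuin was measured with serially diluted compounds over 3 h at 4° C. Bound protein was detected with streptavidin-peroxidase and ABTS substrate by absorbance. IC50 values are means of several measurements.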

[2] = Gal-3 inhibition, Table 5, read-out: IC50
[3] = Table 10, hGal-3, read-out: IC50 (Gal-3 inhibition)
[4] = Table 12, hGal-3, read-out: IC50 (Gal-3 inhibition)

Sequence of biotinylated human Gal-3 (hGal-3) (P17931 whole entry): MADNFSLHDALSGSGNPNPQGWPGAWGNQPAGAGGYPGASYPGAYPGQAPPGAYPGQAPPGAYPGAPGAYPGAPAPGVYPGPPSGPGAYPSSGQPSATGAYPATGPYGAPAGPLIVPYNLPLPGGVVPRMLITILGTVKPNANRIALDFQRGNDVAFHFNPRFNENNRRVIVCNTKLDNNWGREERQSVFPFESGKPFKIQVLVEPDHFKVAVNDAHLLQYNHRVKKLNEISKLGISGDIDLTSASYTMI
Sequence of human Gal-1 (hGal-1) (P09382 whole entry): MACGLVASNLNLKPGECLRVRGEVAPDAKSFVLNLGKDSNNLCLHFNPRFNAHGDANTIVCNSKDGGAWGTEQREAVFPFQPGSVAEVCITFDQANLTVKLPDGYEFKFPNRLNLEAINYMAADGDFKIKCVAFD

Structure (SMILES) | IC50 (human Gal-1 (hGal-1)) [nM] | IC50 ([1]; Table 9, hGal-3, read-out: IC50 (Gal-3 inhibition)) [nM] | IC50 [1, 2] [nM] | IC50 [1, 3] [nM] | IC50 [1, 4] [nM]
CN(C(=O)[C@@H](S[C@@H]1O[C@H](CO)[C@H](O)[C@H](n2cc(-c3cc(F)c(F)c(F)c3)nn2)[C@H]1O)C1(O)CCOCC1)c1cccnc1 [Example 2.41.234S.] | 100 | 100 |  |  | 
CN(C(=O)C(S[C@@H]1O[C@H](CO)[C@H](O)[C@H](n2cc(-c3cc(F)c(F)c(F)c3)nn2)[C@H]1O)C1(O)CCOCC1)C1COC1 (stereo partly drawn) [Example 2.41.235., 2-(((2S,3R,4S,5R,6R)-3,5-Dihydroxy-6-(hydroxymethyl)-4-(4-(3,4,5-trifluorophenyl)-1H-1,2,3-triazol-1-yl)tetrahydro-2H-pyran-2-yl)thio)-2-(4-hydroxytetrahydro-2H-pyran-4-yl)-N-methyl-N-(oxetan-3-yl)acetamide] | 90 |  | 60 |  | 
CN(C(=O)[C@H](S[C@@H]1O[C@H](CO)[C@H](O)[C@H](n2cc(-c3cc(F)c(F)c(F)c3)nn2)[C@H]1O)C1(O)CCOCC1)C1COC1 [Example 2.41.235R., (R)-2-(((2S,3R,4S,5R,6R)-3,5-Dihydroxy-6-(hydroxymethyl)-4-(4-(3,4,5-trifluorophenyl)-1H-1,2,3-triazol-1-yl)tetrahydro-2H-pyran-2-yl)thio)-2-(4-hydroxytetrahydro-2H-pyran-4-yl)-N-methyl-N-(oxetan-3-yl)acetamide] | 6540 |  | 2400 |  | 
CN(C(=O)[C@@H](S[C@@H]1O[C@H](CO)[C@H](O)[C@H](n2cc(-c3cc(F)c(F)c(F)c3)nn2)[C@H]1O)C1(O)CCOCC1)C1COC1 [Example 2.41.235S., (S)-2-(((2S,3R,4S,5R,6R)-3,5-Dihydroxy-6-(hydroxymethyl)-4-(4-(3,4,5-trifluorophenyl)-1H-1,2,3-triazol-1-yl)tetrahydro-2H-pyran-2-yl)thio)-2-(4-hydroxytetrahydro-2H-pyran-4-yl)-N-methyl-N-(oxetan-3-yl)acetamide] | 90 |  | 40 |  | 
CCN(CC1CC1)C(=O)C(S[C@@H]1O[C@H](CO)[C@H](O)[C@H](n2cc(-c3cc(F)c(F)c(F)c3)nn2)[C@H]1O)C1(O)CCOCC1 (stereo partly drawn) [Example 2.41.236., N-(Cyclopropylmethyl)-2-(((2S,3R,4S,5R,6R)-3,5-dihydroxy-6-(hydroxymethyl)-4-(4-(3,4,5-trifluorophenyl)-1H-1,2,3-triazol-1-yl)tetrahydro-2H-pyran-2-yl)thio)-N-ethyl-2-(4-hydroxytetrahydro-2H-pyran-4-yl)acetamide] | 9900 |  | 4470 |  | 
CO[C@@H]1[C@@H](n2cc(-c3cc(F)c(F)c(F)c3)nn2)[C@@H](O)[C@@H](CO)O[C@H]1SC(C(=O)N(C)C)C1(O)CCC(F)(F)CC1 (stereo partly drawn) [Example 2.44.201.I., 2-(4,4-Difluoro-1-hydroxycyclohexyl)-2-(((2S,3R,4S,5R,6R)-5-hydroxy-6-(hydroxymethyl)-3-methoxy-4-(4-(3,4,5-trifluorophenyl)-1H-1,2,3-triazol-1-yl)tetrahydro-2H-pyran-2-yl)thio)-N,N-dimethylacetamide] | 250 |  |  |  | 60
CCN(C)C(=O)C(S[C@@H]1O[C@H](CO)[C@H](O)[C@H](n2cc(-c3cc(F)c(F)c(F)c3)nn2)[C@H]1OC)C1(O)CCC(F)(F)CC1 (stereo partly drawn) [Example 2.44.203.I., 2-(4,4-Difluoro-1-hydroxycyclohexyl)-N-ethyl-2-(((2S,3R,4S,5R,6R)-5-hydroxy-6-(hydroxymethyl)-3-methoxy-4-(4-(3,4,5-trifluorophenyl)-1H-1,2,3-triazol-1-yl)tetrahydro-2H-pyran-2-yl)thio)-N-methylacetamide] | 120 |  |  |  | 40
CO[C@@H]1[C@@H](n2cc(-c3cc(F)c(F)c(F)c3)nn2)[C@@H](O)[C@@H](CO)O[C@H]1SC(C(=O)N(C)C1CCOCC1)C1(O)CCC(F)(F)CC1 (stereo partly drawn) [Example 2.44.213.I., 2-(4,4-Difluoro-1-hydroxycyclohexyl)-2-(((2S,3R,4S,5R,6R)-5-hydroxy-6-(hydroxymethyl)-3-methoxy-4-(4-(3,4,5-trifluorophenyl)-1H-1,2,3-triazol-1-yl)tetrahydro-2H-pyran-2-yl)thio)-N-methyl-N-(tetrahydro-2H-pyran-4-yl)acetamide] | 150 |  |  |  | 70
CO[C@@H]1[C@@H](n2cc(-c3cc(F)c(F)c(F)c3)nn2)[C@@H](O)[C@@H](CO)O[C@H]1SC(C(=O)N(C)CCC1CC1)C1(O)CCC(F)(F)CC1 (stereo partly drawn) [Example 2.44.217.I., N-(2-Cyclopropylethyl)-2-(4,4-difluoro-1-hydroxycyclohexyl)-2-(((2S,3R,4S,5R,6R)-5-hydroxy-6-(hydroxymethyl)-3-methoxy-4-(4-(3,4,5-trifluorophenyl)-1H-1,2,3-triazol-1-yl)tetrahydro-2H-pyran-2-yl)thio)-N-methylacetamide] | 110 |  |  |  | 50
CN(CC1CC1)C(=O)[C@H](S[C@@H]1O[C@H](CO)[C@H](O)[C@H](n2cc(-c3cc(F)c(F)c(F)c3)nn2)[C@H]1O)C1(O)CCC(F)(F)CC1 [Example 2.44.218R., (R)-N-(Cyclopropylmethyl)-2-(4,4-difluoro-1-hydroxycyclohexyl)-2-(((2S,3R,4S,5R,6R)-3,5-dihydroxy-6-(hydroxymethyl)-4-(4-(3,4,5-trifluorophenyl)-1H-1,2,3-triazol-1-yl)tetrahydro-2H-pyran-2-yl)thio)-N-methylacetamide] | 1900 |  | 1150 |  | 

These reach a lower IC50 (human Gal-1 (hGal-1)). Values come first.

IC50 (human Gal-1 (hGal-1)) [nM] | IC50 ([1]; Table 9, hGal-3, read-out: IC50 (Gal-3 inhibition)) [nM] | IC50 [1, 2] [nM] | IC50 [1, 3] [nM] | IC50 [1, 4] [nM] | Structure (SMILES)
80 |  |  |  | 30 | CO[C@@H]1[C@@H](n2cc(-c3cc(F)c(F)c(F)c3)nn2)[C@@H](O)[C@@H](CO)O[C@H]1SC(C(=O)N(C)CC1CC1)C1(O)CCC(F)(F)CC1 (stereo partly drawn) [Example 2.44.218.I., N-(Cyclopropylmethyl)-2-(4,4-difluoro-1-hydroxycyclohexyl)-2-(((2S,3R,4S,5R,6R)-5-hydroxy-6-(hydroxymethyl)-3-methoxy-4-(4-(3,4,5-trifluorophenyl)-1H-1,2,3-triazol-1-yl)tetrahydro-2H-pyran-2-yl)thio)-N-methylacetamide]
40 |  | 50 |  |  | CN(CC1CC1)C(=O)[C@@H](S[C@@H]1O[C@H](CO)[C@H](O)[C@H](n2cc(-c3cc(F)c(F)c(F)c3)nn2)[C@H]1O)C1(O)CCC(F)(F)CC1 [Example 2.44.218S., (S)-N-(Cyclopropylmethyl)-2-(4,4-difluoro-1-hydroxycyclohexyl)-2-(((2S,3R,4S,5R,6R)-3,5-dihydroxy-6-(hydroxymethyl)-4-(4-(3,4,5-trifluorophenyl)-1H-1,2,3-triazol-1-yl)tetrahydro-2H-pyran-2-yl)thio)-N-methylacetamide]
30 |  | 20 |  |  | CN(CC1CC1)C(=O)C(S[C@@H]1O[C@H](CO)[C@H](O)[C@H](n2cc(-c3cc(F)c(F)c(F)c3)nn2)[C@H]1O)C1(O)CCC(F)(F)CC1 (stereo partly drawn) [Example 2.44.218., N-(Cyclopropylmethyl)-2-(4,4-difluoro-1-hydroxycyclohexyl)-2-(((2S,3R,4S,5R,6R)-3,5-dihydroxy-6-(hydroxymethyl)-4-(4-(3,4,5-trifluorophenyl)-1H-1,2,3-triazol-1-yl)tetrahydro-2H-pyran-2-yl)thio)-N-methylacetamide]
20 |  |  | 30 |  | CCN(C(=O)C(S[C@@H]1O[C@H](CO)[C@H](O)[C@H](n2cc(-c3cc(F)c(F)c(F)c3)nn2)[C@H]1O)C1(O)CCOCC1)C1CCC1 (stereo partly drawn) [Example 2.41.237.]
20 |  |  | 30 |  | CCN(CC1CCOCC1)C(=O)C(S[C@@H]1O[C@H](CO)[C@H](O)[C@H](n2cc(-c3cc(F)c(F)c(F)c3)nn2)[C@H]1OC)C1(O)CCC(F)(F)CC1 (stereo partly drawn) [Example 2.44.214.I.]
